Laboratory results published in the supplement of paper PMC10307832.

What was measured:
Assay in all cases: relative viability (nuclei count vs DMSO), 5 days (fraction); higher = more cells survive
Metformin + OSI-027 = compound: CN(C)C(=N)NC(=N)N [Metformin] + COc1cccc2cc(-c3nc([C@H]4CC[C@H](C(=O)O)CC4)n4ncnc(N)c34)[nH]c12 [OSI-027] (partner 0.5 µM)
Outline: (§1)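 Lung cancer cell lines were pin-tool dosed in 1536-well plates on the day after seeding, with either a lone drug or a fixed anchor-drug dose plus five library-drug doses (not always all listed) in √10 steps. Nuclei were counted on 4× images after 5 days. Relative viability is the ratio of treated-well to vehicle-well nuclei counts, with each value a median of duplicate plates.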

Metformin + Crizotinib = compound: CN(C)C(=N)NC(=N)N [Metformin] + C[C@@H](Oc1cc(-c2cnn(C3CCNCC3)c2)cnc1N)c1c(Cl)ccc(F)c1Cl [Crizotinib] (partner 1 µM)
Outline: as §1

Metformin + Decitabine = compound: CN(C)C(=N)NC(=N)N [Metformin] + Nc1ncn([C@H]2C[C@H](O)[C@@H](CO)O2)c(=O)n1 [Decitabine] (partner 2 µM)
Outline: as §1

Apatinib + OSI-027 = compound: N#CC1(c2ccc(NC(=O)c3cccnc3NCc3ccncc3)cc2)CCCC1 [Apatinib] + COc1cccc2cc(-c3nc([C@H]4CC[C@H](C(=O)O)CC4)n4ncnc(N)c34)[nH]c12 [OSI-027] (partner 0.5 µM)
Outline: as §1

Row | Cell Line | relative viability (Metformin + OSI-027; first compound 10 µM) | relative viability (Metformin + OSI-027; first compound 31.62 µM) | relative viability (Metformin + OSI-027; first compound 100 µM) | relative viability (Metformin + OSI-027; first compound 316.23 µM) | relative viability (Metformin + OSI-027; first compound 1000 µM) | relative viability (Metformin + Crizotinib; first compound 10 µM) | relative viability (Metformin + Crizotinib; first compound 31.62 µM) | relative viability (Metformin + Crizotinib; first compound 100 µM) | relative viability (Metformin + Crizotinib; first compound 316.23 µM) | relative viability (Metformin + Crizotinib; first compound 1000 µM) | relative viability (Metformin + Decitabine; first compound 10 µM) | relative viability (Metformin + Decitabine; first compound 31.62 µM) | relative viability (Metformin + Decitabine; first compound 100 µM) | relative viability (Metformin + Decitabine; first compound 316.23 µM) | relative viability (Metformin + Decitabine; first compound 1000 µM) | relative viability (Apatinib + OSI-027; first compound 0.08 µM) | relative viability (Apatinib + OSI-027; first compound 0.253 µM) | relative viability (Apatinib + OSI-027; first compound 0.8 µM) | relative viability (Apatinib + OSI-027; first compound 2.53 µM) | relative viability (Apatinib + OSI-027; first compound 8 µM)
1 | ChaGo-K-1 | 0.595 | 0.599 | 0.6 | 0.543 | 0.597 | 1.16 | 1.07 | 1.09 | 1.13 | 1.19 | 0.524 | 0.535 | 0.512 | 0.481 | 0.509 | 0.628 | 0.616 | 0.491 | 0.455 | 0.493
2 | NCI-H23 | 0.594 | 0.665 | 0.559 | 0.523 | 0.664 | 0.574 | 0.692 | 0.693 | 0.548 | 0.811 | 0.273 | 0.276 | 0.285 | 0.324 | 0.328 | 0.637 | 0.658 | 0.535 | 0.46 | 0.377
3 | NCI-H647 | 0.721 | 0.853 | 0.538 | 0.485 | 0.924 | 0.982 | 1.02 | 0.955 | 0.939 | 0.942 | 0.316 | 0.366 | 0.381 |  | 0.434 | 0.77 | 0.619 | 0.576 | 0.593 | 0.528
4 | LXF-289 | 0.764 | 0.737 | 0.738 | 0.721 | 0.735 | 0.764 | 0.759 | 0.812 | 0.776 | 0.794 | 0.312 | 0.367 | 0.345 | 0.312 | 0.378 | 0.81 | 0.849 | 0.745 | 0.763 | 0.718
5 | PC-3 [JPC-3] | 0.599 | 0.635 | 0.638 | 0.615 | 0.722 | 0.861 | 0.893 | 0.951 | 0.876 | 0.901 | 0.786 | 0.848 |  | 0.841 | 0.732 | 0.747 | 0.639 | 0.627 | 0.517 | 0.571
6 | UMC-11 | 0.594 | 0.549 | 0.539 | 0.426 | 0.505 | 0.725 | 0.742 | 0.673 | 0.626 | 0.598 | 0.573 | 0.743 | 0.741 | 0.49 | 0.437 | 0.574 | 0.437 | 0.479 | 0.464 | 0.312
7 | H3255 | 0.477 | 0.654 | 0.623 | 0.457 | 0.611 | 0.754 | 0.934 | 0.809 | 0.84 | 0.384 | 0.531 | 0.665 | 0.596 | 0.61 | 0.624 | 0.551 | 0.569 | 0.539 | 0.51 | 0.535
8 | NCI-H2170 | 0.566 | 0.52 | 0.683 | 0.673 | 0.711 | 1.09 | 1.14 | 1.19 | 1.02 | 1.19 | 0.415 | 0.436 | 0.417 | 0.395 | 0.471 | 0.803 | 0.752 | 0.692 | 0.594 | 0.674
9 | NCI-H1651 | 0.904 | 1.02 | 1.03 | 0.954 | 1.1 | 0.933 | 0.957 | 0.939 | 0.964 | 0.97 | 0.485 | 0.687 | 0.572 | 0.476 | 0.755 | 0.782 | 0.867 | 0.647 | 0.683 | 0.599
10 | SK-MES-1 | 0.446 | 0.551 | 0.532 | 0.432 | 0.454 | 0.884 | 0.893 | 0.925 | 0.784 | 0.932 | 0.336 | 0.291 | 0.342 | 0.34 | 0.361 | 0.589 | 0.585 | 0.6 | 0.496 | 0.37
11 | NCI-H1355 | 0.434 | 0.373 | 0.396 | 0.416 | 0.406 | 1.01 | 1.06 | 1.03 | 0.986 | 1.11 | 0.402 | 0.285 | 0.332 | 0.355 | 0.372 | 0.391 | 0.396 | 0.394 | 0.374 | 0.364
12 | HOP-62 | 0.827 | 0.903 | 0.992 | 0.678 | 0.861 | 0.917 | 0.995 | 1.11 | 0.765 | 0.917 | 0.193 | 0.144 | 0.18 | 0.208 | 0.186 | 0.917 | 0.874 | 0.799 | 0.714 | 0.605
13 | HCC-366 | 0.757 | 0.967 | 0.991 | 0.808 | 1.28 | 0.608 | 0.502 | 0.532 | 0.398 | 0.709 | 0.288 | 0.293 | 0.306 | 0.291 | 0.289 | 1.06 | 0.88 | 0.815 | 0.744 | 0.494
14 | BEN | 0.271 | 0.275 | 0.3 | 0.314 | 0.263 | 1.16 | 1.24 | 1.15 | 1.01 | 1.13 | 0.768 | 0.777 | 0.646 | 0.661 | 0.752 | 0.283 | 0.277 | 0.3 | 0.299 | 0.317
15 | NCI-H520 | 0.306 | 0.35 | 0.322 | 0.28 | 0.348 | 0.804 | 0.75 | 0.803 | 0.752 | 0.606 | 0.463 | 0.447 | 0.461 | 0.423 | 0.485 | 0.262 | 0.229 | 0.219 | 0.25 | 0.224
16 | NCI-H2023 | 0.421 | 0.558 | 0.379 | 0.397 | 0.378 |  | 0.767 | 0.706 |  | 0.512 | 0.224 | 0.223 | 0.203 | 0.207 | 0.186 | 0.499 | 0.42 | 0.342 | 0.296 | 0.207
17 | NCI-H838 | 0.544 | 0.624 | 0.563 | 0.508 | 0.515 | 0.815 | 0.814 | 0.875 | 0.864 | 0.854 | 0.478 | 0.465 | 0.482 | 0.396 | 0.459 | 0.456 | 0.393 | 0.361 | 0.357 | 0.422
18 | SW 1573 | 0.68 | 0.756 | 0.611 | 0.4 | 0.419 | 0.892 | 0.849 | 0.866 | 0.706 | 0.815 | 0.508 | 0.637 | 0.44 | 0.431 | 0.421 | 0.71 | 0.636 | 0.553 | 0.593 | 0.518
19 | HCC-15 |  | 0.812 | 0.655 | 0.586 | 0.678 | 0.818 | 0.81 | 0.889 | 0.8 | 0.833 | 0.548 | 0.636 | 0.703 | 0.662 | 0.703 | 0.719 | 0.691 | 0.658 | 0.628 | 0.509
20 | NCI-H1666 | 0.97 | 0.974 | 1.05 | 0.99 | 0.939 | 1.26 | 1.03 | 1.15 | 1.09 | 1.2 | 0.66 | 0.713 | 0.649 | 0.619 | 0.823 | 0.883 | 0.826 | 0.797 | 0.73 | 0.755
21 | A-427 | 0.45 | 0.493 | 0.44 | 0.458 | 0.492 | 0.802 | 1.17 | 0.84 | 0.926 | 0.896 | 0.524 | 0.587 | 0.571 | 0.521 | 0.574 | 0.52 | 0.465 | 0.479 | 0.476 | 0.404
22 | LU99A | 0.302 | 0.321 | 0.3 | 0.309 | 0.289 | 0.47 | 0.52 | 0.443 | 0.503 | 0.481 | 0.798 | 0.765 | 0.723 | 0.735 | 0.849 | 0.317 | 0.277 | 0.259 | 0.243 | 0.263
23 | NCI-H727 | 0.543 | 0.726 | 0.736 | 0.545 | 0.48 | 0.886 | 0.886 | 1.04 | 0.811 | 0.993 | 0.789 | 0.897 | 0.89 |  | 1.1 | 0.55 | 0.565 | 0.533 | 0.642 | 0.466
24 | EPLC-272H | 0.294 | 0.269 | 0.262 | 0.293 | 0.335 | 1.07 | 1.03 | 0.874 | 0.918 | 1.06 | 0.383 | 0.415 | 0.426 | 0.38 | 0.507 | 0.308 |  | 0.268 | 0.246 | 0.247
